The source of these data is patent publication US9708370B2, “Azapeptides as CD36 binding compounds” (VALORISATION-RECHERCHE, LIMITED PARTNERSHIP, priority 2007, dated 2017).

One assay concerns the target human GHS-R1a (Homo sapiens (Human), UniProt Q92847). Briefly: GHS-R1a binding assay, competition with 125I-ghrelin on membranes of LLC-PK1 cells expressing human GHS-R1a.
Assay [1] concerns vascular sprouting of aortic endothelium (aortic rings). Briefly: Inhibition of microvascular sprouting from Matrigel-embedded aortic explants. The class given is cell-based, mice. The source says: FIG. 1 illustrates disruption of vascular sprouting of aortic endothelium by azapeptide compound DBG178. Sprouting aortic endothelium (Von Willebrand factor positive) expressing CD36 is shown in the upper row of FIG. 1a. Vascular sprouting of aortic rings from C57BL/6 and CD36 null mice in the presence of DBG 178 at 10^−7M is shown in the lower row of FIG. 1a. Histograms of microvascular sprouts areas (mean±s.e.m) from aortic explants of C57BL/6 and CD36 null mice exposed to DBG concentrations from 10^−8 to 10^−6 M p<0.01 compared with control (Ctl) is shown in FIG. 1b.
Aortas were excised from 10-week-old male C57/Bl6+/+ and CD36−/− mice of C57/Bl6 background. The fibroadipose tissue was removed and aortas were sectioned into 2-mm-long cross-sections. The +/+ and −/− rings were covered by 50 μl of Matrigel and cultured for 4 days in EGM-2 medium (Clonetics Corp.). Explants were then exposed to vehicle alone or in presence of an azapeptide prototype DBG178 at the indicated concentrations (10^−8 to 10^−6 M) from day 4 to day 6 of culture in EGM-2 medium. Pictures of each individual explant were taken at day 4 and day 6 and EC growth was measured as the surface covered at day 6 minus the surface covered at day 4 Data were subject to analysis of variance (ANOVA) followed by Dunnet's post test to test for differences among groups. Outgrowing cells were characterized by double-labelling with monoclonal vWF antibody (1:100, Dako) and polyclonal CD36 (1:100, Santa Cruz) after acetone fixation using their respective alexa coupled secondary antibodies.

Assay [2] has as its system laser injury induced choroidal neovascularisation. Briefly: Inhibition of choroidal neovascularisation in vivo, laser injury model. Also noted: species or system mice. From the text:
The standard model of choroidal neovascularisation is the laser injury induced neovascularisation (47). In this model, which is applicable to rodents and primates, a laser beam is used to disrupt the RPE and the Bruchs membrane that separates the choroidal vasculature from the subretinal space. The following local inflammatory reaction in deep retina and choroid leads to a localized subretinal neovascularisation in a similar manner as that observed in AMD. This local neovascularisation can be quantified on flatmounts of RPE/choroid/sclera. The antiangiogenic effect of DBG178 on subretinal neovascularisation was tested by injecting intravitreally at effective concentration of 10^−7 to 10^−6 M within the eye and compared to that of intravitreal injection of saline used as a control.
Ten-week old C56/Bl6+/+ and CD36 null mice of C57Bl/6 background were anesthetized by intramuscular injection of ketamine (50 mg/kg) and xylazine (10 mg/kg). Pupils were fully dilated with 1% tropicamide. Coverslips positioned on the mouse cornea were used as a contact glass. Laser-coagulations were performed 1 to 2 disc diameters away from the papillae using an Argon laser (532 nm) mounted on a slit lamp (400 mW, 50 ms and 50 μm). […] The RPE/choroids were radially incised, flatmounted and viewed using a fluorescence microscope (BX51; Olympus). CNV were measured on photographs using Scion image analysis software.

Entries after “also recorded” stand apart in the source; their conditions may differ. Starred links: 1 amine or outer side, 2 acyl side, 3 side chain; linkers in the order of their positions; H or OH if unused. Non-standard residues stand in square brackets, D forms with d. Residues, ends and D or L forms follow the SMILES beside them. azaTyr = O=C(N(Cc1ccc(O)cc1)N[*:1])[*:2]

Chain of human GHS-R1a (Q92847 whole entry): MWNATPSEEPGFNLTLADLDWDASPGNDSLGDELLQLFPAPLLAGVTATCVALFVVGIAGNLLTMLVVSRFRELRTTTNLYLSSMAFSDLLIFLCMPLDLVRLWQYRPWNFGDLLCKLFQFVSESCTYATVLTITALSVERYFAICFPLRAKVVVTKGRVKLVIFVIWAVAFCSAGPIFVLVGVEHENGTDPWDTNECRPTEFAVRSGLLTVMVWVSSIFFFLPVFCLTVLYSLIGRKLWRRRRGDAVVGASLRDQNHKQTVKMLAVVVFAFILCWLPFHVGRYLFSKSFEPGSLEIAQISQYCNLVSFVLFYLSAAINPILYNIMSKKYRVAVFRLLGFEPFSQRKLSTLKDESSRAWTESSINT

`C[C@H](NC(=O)[C@@H](Cc1c[nH]c2ccccc12)NC(=O)[C@@H](N)Cc1cnc[nH]1)C(=O)NN(Cc1ccc(O)cc1)C(=O)N[C@H](Cc1ccccc1)C(=O)N[C@@H](CCCCN)C(N)=O` [DBG178p, His-D-Trp-Ala-azaTyr-D-Phe-Lys-NH2] (H-H[dW]A[azaTyr][dF]K-NH2): at human GHS-R1a (Table 4, LLCPK-1 membranes overexpressing GHS-R1a, radioiodinated (1-28) rat ghrelin as tracer, read-out: EC50 (text: IC50 values from competition curves in GHS-R1a radioreceptor assay)), the IC50 was 15.7 µM. In addition, at human GHS-R1a (compared with GHRP-6), the “binding affinity for GHS-R1a receptor in words” value is reported as “reducing the binding affinity”. Further, the “inhibition of vascular sprouting of aortic rings” value in assay [1] (aortic rings from C57BL/6 mice, 10^−7 to 10^−6 M) is listed as “disrupt significantly; also recorded: significantly inhibited”. The “inhibitory effect on vascular sprouting of aortic rings” value in assay [1] (aortic rings from CD36 null mice) is “not detected”. In assay [2] (C57BL/6 mice, intravitreal injection 3 and 7 days after laser injury, 10^−7 and 10^−6 M within the eye), the “inhibition of the neovascular response” value is recorded as “more than 50%”. In assay [2] (eye of CD36 null mice, intravitreal injection), the “effect on the neovascular response” value is “no effect”.

Broadly, the IC50 is the midpoint of a concentration-inhibition curve.
